We go through 6 compounds from US8383577B2 (Endo Pharmaceuticals Solutions, Inc., priority 2008, dated 2013).

Data set [1] is described as follows: Formulation study: effect of excipient on implant shape and durability (Example 3). The format is physicochemical. As to conditions: cartridges about 28% HEMA, about 66.5% HPMA, 5% glycerin. The source says: A series of implants was monitored to determine the effect of excipient on implant shape and durability. Each of the polymer cartridges was composed of about 28% HEMA, about 66.5% HPMA and 5% glycerin.

Data set [2] concerns GH. The note with it: following a subcutaneous octreotide injection; cited from earlier work.
Data set [3] deals with IGF-1. As to conditions: acromegaly patients on octreotide; cited from earlier work.
For data set [4] the following is noted: cited from earlier work; for CMC: critical micelle concentration; for HLB: hydrophilic-lipophilic balance.

As to `O=C(O)CO` [glycolic acid], the “stabilization of the octreotide implant by excipient” value in data set [1] is “did not provide a stabilizing effect and resulted in a decrease in integrity”.
Turning to “L-cysteinamide, D-phenylalanyl-L-cysteiny-L-phenylalanyl-D-tryptophyl-L-lysyl-L-threonyl-N-[2-hydroxy-1-(hydroxymethyl)propyl]-, cyclic(2→7)-disulfide; [Octreotide, L-cysteinamide, D-phenylalanyl-L-cysteiny-L-phenylalanyl-D-tryptophyl-L-lysyl-L-threonyl-N-[2-hydroxy-1-(hydroxymethyl)propyl]-, cyclic(2→7)-disulfide; [R-(R*,R*)]]”, the “time to GH level decrease” value in data set [2] is listed as “usually decrease within two hours”. Moreover, in data set [3], the “patients with normalization of IGF-1 levels” value is listed as “up to 60 % of patients”.
Turning to `OC[C@@H](O)[C@@H](O)[C@H](O)[C@H](O)CO` [mannitol], the “stabilization of the octreotide implant by excipient” value in data set [1] is “did not provide a stabilizing effect and resulted in a decrease in integrity”.
Sucrose monolaurate: in data set [4], the “CMC” value was 0.2 mM and the HLB is on record as ~8.
On to Triton X-100, for which, in data set [4], the “CMC” value was 0.2 to 0.9 mM and the HLB is recorded as 13.5.
In the case of `CCCCCCCC/C=C\CCCCCCCC(=O)OCCOCC(OCCO)C1OCC(OCCO)C1OCCO` (stereo not shown) [Tween 80], in data set [4], the “CMC” value is reported as 0.012 mM and the HLB is on record as 15.
